{"source": "paper PMC2694132", "about": "(Cancer research, 2009)", "assay_type_in_all_cases": "in vitro ADME", "key": {"UGT1A9": {"molecular_target": "T1, UGT1A9 (Homo sapiens, UniProt O60656)", "T1 sequence (O60656 26-530)": "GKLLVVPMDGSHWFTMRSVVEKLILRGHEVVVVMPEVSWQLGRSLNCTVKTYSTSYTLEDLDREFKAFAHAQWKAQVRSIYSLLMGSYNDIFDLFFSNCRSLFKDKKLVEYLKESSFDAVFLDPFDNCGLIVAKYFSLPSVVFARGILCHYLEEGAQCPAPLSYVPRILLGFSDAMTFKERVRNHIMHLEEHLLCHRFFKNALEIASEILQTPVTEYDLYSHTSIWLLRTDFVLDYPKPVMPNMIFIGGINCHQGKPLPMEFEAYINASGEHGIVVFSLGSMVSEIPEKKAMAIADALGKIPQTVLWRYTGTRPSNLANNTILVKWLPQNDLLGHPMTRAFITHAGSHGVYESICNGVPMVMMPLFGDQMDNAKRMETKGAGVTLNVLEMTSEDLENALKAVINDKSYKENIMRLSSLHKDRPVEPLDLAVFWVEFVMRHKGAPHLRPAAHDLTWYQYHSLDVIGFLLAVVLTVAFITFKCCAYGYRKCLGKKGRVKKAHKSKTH", "assay": "SAHA glucuronidation, UGT1A9-overexpressing HEK293 cell homogenate"}, "UGT1A5": {"molecular_target": "T2, UGT1A5 (Homo sapiens, UniProt P35504)", "T2 sequence (P35504 29-534)": "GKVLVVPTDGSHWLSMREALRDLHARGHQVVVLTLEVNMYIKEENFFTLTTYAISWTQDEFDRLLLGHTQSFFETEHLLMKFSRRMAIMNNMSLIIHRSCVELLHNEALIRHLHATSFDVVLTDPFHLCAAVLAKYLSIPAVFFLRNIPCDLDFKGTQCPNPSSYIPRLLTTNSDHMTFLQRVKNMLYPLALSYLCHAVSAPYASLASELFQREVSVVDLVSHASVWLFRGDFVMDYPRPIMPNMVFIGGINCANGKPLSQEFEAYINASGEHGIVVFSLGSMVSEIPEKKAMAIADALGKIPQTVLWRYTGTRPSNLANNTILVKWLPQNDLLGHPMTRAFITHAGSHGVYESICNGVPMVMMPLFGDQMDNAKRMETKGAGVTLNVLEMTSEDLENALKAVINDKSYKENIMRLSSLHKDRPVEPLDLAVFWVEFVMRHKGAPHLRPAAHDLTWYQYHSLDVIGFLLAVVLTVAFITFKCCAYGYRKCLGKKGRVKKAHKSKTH", "assay": "SAHA glucuronidation screen, UGT1A5-overexpressing cell homogenate", "conditions": "400 μg UGT-overexpressing cell homogenate, 1-h incubation"}, "UGT2B11": {"molecular_target": "T3, UGT2B11 (Homo sapiens, UniProt O75310)", "T3 sequence (O75310 22-529)": "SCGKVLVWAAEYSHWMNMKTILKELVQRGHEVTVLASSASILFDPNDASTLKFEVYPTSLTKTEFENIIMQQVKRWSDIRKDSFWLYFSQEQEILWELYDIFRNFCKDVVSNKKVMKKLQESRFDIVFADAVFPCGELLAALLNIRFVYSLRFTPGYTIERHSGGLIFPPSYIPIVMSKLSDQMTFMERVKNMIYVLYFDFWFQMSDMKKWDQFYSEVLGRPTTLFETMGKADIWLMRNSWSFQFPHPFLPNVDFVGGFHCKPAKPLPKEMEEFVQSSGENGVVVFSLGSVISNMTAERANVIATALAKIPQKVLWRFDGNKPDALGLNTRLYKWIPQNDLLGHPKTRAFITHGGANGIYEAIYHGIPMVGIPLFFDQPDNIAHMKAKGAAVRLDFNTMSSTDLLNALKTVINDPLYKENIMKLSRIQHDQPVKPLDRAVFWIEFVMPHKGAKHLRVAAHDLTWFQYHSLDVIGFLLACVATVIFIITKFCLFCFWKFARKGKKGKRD", "assay": "SAHA glucuronidation screen, UGT2B11-overexpressing cell homogenate", "conditions": "400 μg UGT-overexpressing cell homogenate, 1-h incubation"}, "[1]": {"molecular_target": "T4, UGT1A7*4 (UGT1A7p.Trp208Arg) (Homo sapiens, UniProt Q9HAW7, W208R)", "T4 sequence (Q9HAW7 26-530 W208R)": "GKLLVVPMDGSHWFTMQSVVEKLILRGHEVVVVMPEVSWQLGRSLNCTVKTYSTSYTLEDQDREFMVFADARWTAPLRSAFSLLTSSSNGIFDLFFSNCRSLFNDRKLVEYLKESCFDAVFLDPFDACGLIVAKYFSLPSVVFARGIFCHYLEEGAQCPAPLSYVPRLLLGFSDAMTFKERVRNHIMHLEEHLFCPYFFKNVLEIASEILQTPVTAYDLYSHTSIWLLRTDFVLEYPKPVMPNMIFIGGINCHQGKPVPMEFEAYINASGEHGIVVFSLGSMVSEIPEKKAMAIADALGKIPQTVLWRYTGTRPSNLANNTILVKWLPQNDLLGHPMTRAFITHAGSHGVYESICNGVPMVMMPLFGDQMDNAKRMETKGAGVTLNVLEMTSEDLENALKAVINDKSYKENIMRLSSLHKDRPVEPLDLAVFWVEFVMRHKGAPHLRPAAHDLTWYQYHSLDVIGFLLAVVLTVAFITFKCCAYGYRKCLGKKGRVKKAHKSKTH", "assay": "SAHA glucuronidation, UGT1A7*4 variant cell homogenate"}, "UGT2B10": {"molecular_target": "T5, UGT2B10 (Homo sapiens, UniProt P36537)", "T5 sequence (P36537 24-528)": "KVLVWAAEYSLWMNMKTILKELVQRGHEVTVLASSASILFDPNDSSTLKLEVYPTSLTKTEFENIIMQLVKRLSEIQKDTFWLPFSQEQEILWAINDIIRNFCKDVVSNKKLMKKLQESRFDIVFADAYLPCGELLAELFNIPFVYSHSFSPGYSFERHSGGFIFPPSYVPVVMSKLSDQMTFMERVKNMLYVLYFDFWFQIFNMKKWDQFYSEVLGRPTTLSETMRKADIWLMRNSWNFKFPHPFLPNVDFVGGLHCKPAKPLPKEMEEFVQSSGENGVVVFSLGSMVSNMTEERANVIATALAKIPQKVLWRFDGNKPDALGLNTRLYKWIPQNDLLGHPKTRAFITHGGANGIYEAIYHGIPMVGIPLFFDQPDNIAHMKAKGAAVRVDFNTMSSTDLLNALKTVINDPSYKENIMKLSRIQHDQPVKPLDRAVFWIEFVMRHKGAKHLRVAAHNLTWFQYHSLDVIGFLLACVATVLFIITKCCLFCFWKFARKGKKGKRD", "assay": "SAHA glucuronidation screen, UGT2B10-overexpressing cell homogenate", "conditions": "400 μg UGT-overexpressing cell homogenate, 1-h incubation"}}}
{"molecule": "O=C(CCCCCCC(=O)Nc1ccccc1)NO", "note": "[SAHA, Suberoylanilide hydroxamic acid]", "values": [{"measurement": "glucuronidation against SAHA (screen)", "setting": "UGT1A9; 400 μg UGT-overexpressing cell homogenate, 1-h incubation", "result": "high levels of glucuronidation"}, {"measurement": "Km at 1 h", "setting": "UGT1A9; human, UGT1A9-overexpressing HEK293 cell homogenate, pH 7.5", "result": "1600 ± 500", "unit": "µM"}, {"measurement": "glucuronidation activity against SAHA (screen)", "setting": "UGT1A5", "result": "No detectable glucuronidation activity"}, {"measurement": "glucuronidation activity against SAHA (screen)", "setting": "UGT2B11", "result": "No detectable glucuronidation activity"}, {"measurement": "difference in glucuronidation activity against SAHA versus wild-type UGT1A7", "setting": "[1]; UGT1A7 variants", "result": "No significant difference"}, {"measurement": "Km at 1 h", "setting": "[1]; human, pH 7.5", "result": "2200 ± 500", "unit": "µM"}, {"measurement": "glucuronidation activity against SAHA (screen)", "setting": "UGT2B10", "result": "No detectable glucuronidation activity"}]}
